Data from patent US11685734B2, “ATM kinase inhibitors and compositions and methods of use thereof” (CHDI Foundation, Inc., priority 2019, dated 2023).

Columns and labels:
[1] = molecular target: Recombinant, full length human FLAG-tagged ATM (Homo sapiens (Human), UniProt Q13315); test: ATM ELISA for p53 S15 phosphorylation; assay type: biochemical; settings: 0.75 nM ATM, 25 nM p53, 10 μM ATP, 30 min at 20° C.; read-out: ATM BIO IC50
Method in brief: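 ELISA of p53 S15 phosphorylation by 0.75 nM full-length FLAG-ATM, with 25 nM myc-p53 and 10 μM ATP in HEPES pH 7.5 with Mg/Mn, 30 min at 20° C. Reactions were EDTA-stopped, captured on anti-myc and detected with anti-pS15/HRP-TMB at 450 nm.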

[2] = molecular target: cellular ATM activity (Homo sapiens (Human), UniProt Q13315); test: Inhibition of cellular ATM activity: etoposide-stimulated KAP1 phosphorylation in U20S cells; assay type: cell-based; settings: 100 μM etoposide, 60 min, read-out: ATM CELL IC50
Sequence of cellular ATM activity (Q13315 whole entry): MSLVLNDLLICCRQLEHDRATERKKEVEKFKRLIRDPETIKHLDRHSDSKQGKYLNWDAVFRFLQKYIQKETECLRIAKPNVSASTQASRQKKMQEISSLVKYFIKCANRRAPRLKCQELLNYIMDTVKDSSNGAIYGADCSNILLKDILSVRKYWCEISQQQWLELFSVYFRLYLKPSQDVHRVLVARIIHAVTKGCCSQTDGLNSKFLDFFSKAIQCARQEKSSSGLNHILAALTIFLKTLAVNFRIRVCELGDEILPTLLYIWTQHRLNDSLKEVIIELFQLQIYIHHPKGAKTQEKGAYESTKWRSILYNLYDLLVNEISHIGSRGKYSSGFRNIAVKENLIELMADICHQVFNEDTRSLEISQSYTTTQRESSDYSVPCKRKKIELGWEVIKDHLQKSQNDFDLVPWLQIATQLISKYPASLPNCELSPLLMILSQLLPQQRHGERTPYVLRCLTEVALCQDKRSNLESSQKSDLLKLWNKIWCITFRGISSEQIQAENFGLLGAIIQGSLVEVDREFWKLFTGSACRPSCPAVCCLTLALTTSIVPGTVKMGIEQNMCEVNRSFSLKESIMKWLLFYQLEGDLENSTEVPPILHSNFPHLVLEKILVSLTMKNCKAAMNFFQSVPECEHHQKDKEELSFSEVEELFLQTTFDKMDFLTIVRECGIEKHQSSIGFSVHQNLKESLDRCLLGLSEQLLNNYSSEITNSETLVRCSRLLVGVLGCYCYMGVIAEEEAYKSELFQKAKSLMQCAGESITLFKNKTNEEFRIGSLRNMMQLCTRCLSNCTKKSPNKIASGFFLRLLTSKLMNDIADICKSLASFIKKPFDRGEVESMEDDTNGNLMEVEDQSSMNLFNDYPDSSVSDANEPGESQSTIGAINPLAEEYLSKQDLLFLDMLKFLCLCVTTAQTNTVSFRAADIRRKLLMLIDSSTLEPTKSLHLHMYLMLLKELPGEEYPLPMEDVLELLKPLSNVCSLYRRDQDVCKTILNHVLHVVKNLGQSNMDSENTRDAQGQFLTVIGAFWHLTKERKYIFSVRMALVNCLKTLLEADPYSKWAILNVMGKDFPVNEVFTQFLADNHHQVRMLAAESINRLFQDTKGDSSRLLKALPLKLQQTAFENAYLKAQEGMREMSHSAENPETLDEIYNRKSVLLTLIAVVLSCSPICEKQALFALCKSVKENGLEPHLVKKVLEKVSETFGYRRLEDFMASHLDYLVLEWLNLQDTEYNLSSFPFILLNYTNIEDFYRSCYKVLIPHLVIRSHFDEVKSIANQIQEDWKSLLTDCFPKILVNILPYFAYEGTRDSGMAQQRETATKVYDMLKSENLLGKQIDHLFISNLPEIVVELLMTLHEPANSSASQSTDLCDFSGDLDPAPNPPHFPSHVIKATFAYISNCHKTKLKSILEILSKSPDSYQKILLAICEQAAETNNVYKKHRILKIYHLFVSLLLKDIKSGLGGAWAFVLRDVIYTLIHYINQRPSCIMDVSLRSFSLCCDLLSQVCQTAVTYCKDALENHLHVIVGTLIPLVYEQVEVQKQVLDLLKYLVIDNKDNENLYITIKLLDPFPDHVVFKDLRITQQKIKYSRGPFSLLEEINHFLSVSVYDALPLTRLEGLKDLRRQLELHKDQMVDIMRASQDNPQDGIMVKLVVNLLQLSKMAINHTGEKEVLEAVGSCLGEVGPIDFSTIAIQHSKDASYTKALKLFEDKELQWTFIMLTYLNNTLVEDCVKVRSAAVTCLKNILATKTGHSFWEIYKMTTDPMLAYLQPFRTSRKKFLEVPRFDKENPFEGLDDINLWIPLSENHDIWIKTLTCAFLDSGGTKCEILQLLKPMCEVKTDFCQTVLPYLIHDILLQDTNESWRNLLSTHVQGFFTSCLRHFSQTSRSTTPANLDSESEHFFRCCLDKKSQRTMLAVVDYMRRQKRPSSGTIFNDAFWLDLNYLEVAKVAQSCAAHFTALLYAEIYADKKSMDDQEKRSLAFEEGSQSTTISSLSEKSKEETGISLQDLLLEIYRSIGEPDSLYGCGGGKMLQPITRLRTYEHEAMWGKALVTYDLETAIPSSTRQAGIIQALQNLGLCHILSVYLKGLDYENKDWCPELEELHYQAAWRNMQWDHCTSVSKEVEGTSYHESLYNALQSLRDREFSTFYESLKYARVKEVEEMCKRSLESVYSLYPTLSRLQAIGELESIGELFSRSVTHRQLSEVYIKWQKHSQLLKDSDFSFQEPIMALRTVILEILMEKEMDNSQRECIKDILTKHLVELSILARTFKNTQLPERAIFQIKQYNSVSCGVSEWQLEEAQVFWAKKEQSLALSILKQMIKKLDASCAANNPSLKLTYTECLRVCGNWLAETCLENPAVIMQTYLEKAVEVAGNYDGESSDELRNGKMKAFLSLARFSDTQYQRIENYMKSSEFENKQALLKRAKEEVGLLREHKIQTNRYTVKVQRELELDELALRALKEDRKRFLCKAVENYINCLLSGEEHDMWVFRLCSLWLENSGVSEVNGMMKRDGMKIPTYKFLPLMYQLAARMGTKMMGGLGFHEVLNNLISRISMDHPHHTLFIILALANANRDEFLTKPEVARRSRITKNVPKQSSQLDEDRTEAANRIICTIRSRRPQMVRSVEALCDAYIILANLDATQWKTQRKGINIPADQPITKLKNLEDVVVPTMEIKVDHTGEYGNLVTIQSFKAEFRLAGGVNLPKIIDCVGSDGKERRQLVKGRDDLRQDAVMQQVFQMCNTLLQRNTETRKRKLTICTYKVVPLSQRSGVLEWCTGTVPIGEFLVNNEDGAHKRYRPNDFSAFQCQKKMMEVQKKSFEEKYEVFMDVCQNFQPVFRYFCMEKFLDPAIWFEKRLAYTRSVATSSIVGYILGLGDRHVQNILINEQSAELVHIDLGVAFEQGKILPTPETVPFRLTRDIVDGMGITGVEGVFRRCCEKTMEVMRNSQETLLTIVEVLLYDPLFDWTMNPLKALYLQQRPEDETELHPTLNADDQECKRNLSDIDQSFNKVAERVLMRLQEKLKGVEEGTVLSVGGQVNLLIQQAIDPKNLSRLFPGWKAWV

Sequence of Recombinant, full length human FLAG-tagged ATM (Q13315 whole entry): as above

CC1OCCN(c2cc(=O)[nH]c(N3CCCC3Cc3ccccc3)n2)C1C (single isomer, unassigned) [Example 352, 2-(2-benzylpyrrolidin-1-yl)-6-(2,3-dimethylmorpholino)pyrimidin-4(3H)-one]
IC50 [1]: 24 nM | IC50 [2]: 1530 nM

COC[C@@H](C)Oc1ccc(C[C@H]2CCCN2c2cc(N3CCOCC3)cc(=O)[nH]2)cc1 [Example 145, 6-((R)-2-(4-(((R)-1-methoxypropan-2-yl)oxy)benzyl)pyrrolidin-1-yl)-4-morpholinopyridin-2(1H)-one]
IC50 [1]: 65.6 nM | IC50 [2]: 2030 nM

COc1ccccc1C[C@H]1C[C@@H](C)CCCN1c1nc(N2CCOCC2)cc(=O)[nH]1 [Example 237]
IC50 [1]: 35.6 nM | IC50 [2]: 592 nM

C[C@@H]1CN(c2cc(=O)[nH]c(N3C[C@H]4C[C@H]4[C@@H]3Cc3ccccc3)n2)CCO1 [Example 291, 2-((1R,2S,5S)-2-benzyl-3-azabicyclo[3.1.0]hexan-3-yl)-6-((R)-2-methylmorpholino)pyrimidin-4(3H)-one]
IC50 [1]: 11.1 nM | IC50 [2]: 562 nM

O=c1cc(C2=CCOCC2)cc(N2CCCCC[C@@H]2Cc2ccccc2)[nH]1 [Example 167, (R)-6-(2-benzylazepan-1-yl)-4-(3,6-dihydro-2H-pyran-4-yl)pyridin-2(1H)-one]
IC50 [1]: 38.7 nM | IC50 [2]: 1540 nM

C[C@H]1CCCN(c2nc(N3CCO[C@H](C)C3)cc(=O)[nH]2)[C@@H](Cc2ccc(F)cc2)C1 [Example 313, 2-((2R,4S)-2-(4-fluorobenzyl)-4-methylazepan-1-yl)-6-((R)-2-methylmorpholino)pyrimidin-4(3H)-one]
IC50 [1]: 42.3 nM | IC50 [2]: 1660 nM

C[C@@H]1CN(c2cc(=O)[nH]c(N3CCC[C@@H]3Cc3ccc(F)cc3)n2)CCO1 [Example 281, 2-[(2R)-2-[(4-fluorophenyl)methyl]pyrrolidin-1-yl]-4-[(2R)-2-methylmorpholin-4-yl]-1H-pyrimidin-6-one]
IC50 [1]: 34.9 nM | IC50 [2]: 627 nM

O=c1cc(N2CCOCC2)cc(N2CCCCC[C@@H]2Cc2cccc3c2OCO3)[nH]1 [Example 70, (R)-6-(2-(benzo[d][1,3]dioxol-4-ylmethyl)azepan-1-yl)-4-morpholinopyridin-2(1H)-one]
IC50 [1]: 2.4 nM | IC50 [2]: 274 nM

O=c1cc(N2CCOCC2)nc(N2CCC[C@@H]2Cc2ccc(F)cc2)[nH]1 [Example 193]
IC50 [1]: 9.7 nM | IC50 [2]: 598 nM

C[C@@H]1CN(c2cc(=O)[nH]c(N3C[C@@H]4C[C@@H]4[C@@H]3Cc3ccccc3)n2)CCO1 [Example 292, 2-((1S,2S,5R)-2-benzyl-3-azabicyclo[3.1.0]hexan-3-yl)-6-((R)-2-methylmorpholino)pyrimidin-4(3H)-one]
IC50 [1]: 5.5 nM | IC50 [2]: 1310 nM

CO[C@@H]1CCN(c2nc(N3CCOCC3)cc(=O)[nH]2)[C@H]1Cc1ccccc1 [Example 257, 2-((2S,3R)-2-benzyl-3-methoxypyrrolidin-1-yl)-6-morpholinopyrimidin-4(3H)-one]
IC50 [1]: 4 nM | IC50 [2]: 411 nM

COc1ccccc1C[C@H]1[C@H](C)CCN1c1cc(N2CCOCC2)cc(=O)[nH]1 [Example 47, 6-((2S,3R)-2-(2-methoxybenzyl)-3-methylpyrrolidin-1-yl)-4-morpholinopyridin-2(1H)-one]
IC50 [1]: 8.3 nM | IC50 [2]: 347 nM

COc1ccccc1C[C@H]1CCCCCN1c1nc(N2CCOCC2)cc(=O)[nH]1 [Example 201]
IC50 [1]: 14.1 nM | IC50 [2]: 693 nM

COc1ccccc1C[C@H]1CCCCN1c1nc(N2CCOCC2)cc(=O)[nH]1 [Example 197]
IC50 [1]: 14.9 nM | IC50 [2]: 711 nM

O=c1cc(N2CCOCC2)cc(N2CCCCC[C@@H]2Cc2cccs2)[nH]1 [Example 31, 4-morpholino-6-[(2R)-2-(2-thienylmethyl)azepan-1-yl]-1H-pyridin-2-one]
IC50 [1]: 12.3 nM | IC50 [2]: 260 nM

O=c1cc(N2CCOCC2)cc(N2CCC[C@@H]2Cc2cccc(OC3CCOCC3)c2)[nH]1 [Example 146, (R)-4-morpholino-6-(2-(3-((tetrahydro-2H-pyran-4-yl)oxy)benzyl)pyrrolidin-1-yl)pyridin-2(1H)-one]
IC50 [1]: 74.2 nM | IC50 [2]: 1860 nM

O=c1cc(N2CCOCC2)nc(N2CCCCC[C@@H]2Cc2ccc(F)cc2)[nH]1 [Example 222]
IC50 [1]: 5.7 nM | IC50 [2]: 163 nM

COc1ccccc1C[C@H]1[C@H](C)CCN1c1nc(N2CCOCC2)cc(=O)[nH]1 [Example 217]
IC50 [1]: 7.1 nM | IC50 [2]: 499 nM

O=c1cc(N2CCOCC2)nc(N2CC[C@@H](O)[C@@H]2Cc2ccccc2)[nH]1 [Example 258, 2-((2S,3R)-2-benzyl-3-hydroxypyrrolidin-1-yl)-6-morpholinopyrimidin-4(3H)-one]
IC50 [1]: 6.8 nM | IC50 [2]: 881 nM

COCCOc1cccc(C[C@H]2CCCCCN2c2nc(N3CCO[C@H](C)C3)cc(=O)[nH]2)c1 [Example 308, 2-((R)-2-(3-(2-methoxyethoxy)benzyl)azepan-1-yl)-6-((R)-2-methylmorpholino)pyrimidin-4(3H)-one]
IC50 [1]: 14.3 nM | IC50 [2]: 560 nM

O=c1cc(N2CCOCC2)nc(N2CC[C@@H](F)[C@@H]2Cc2ccccc2)[nH]1 [Example 259, 2-((2S,3R)-2-benzyl-3-fluoropyrrolidin-1-yl)-6-morpholinopyrimidin-4(3H)-one]
IC50 [1]: 1.7 nM | IC50 [2]: 196 nM

O=c1cc(N2CCOCC2)cc(N2C[C@H]3C[C@H]3[C@@H]2Cc2ccccc2)[nH]1 [Example 43, 6-((1R,2S,5S)-2-benzyl-3-azabicyclo[3.1.0]hexan-3-yl)-4-morpholinopyridin-2(1H)-one]
IC50 [1]: 9.6 nM | IC50 [2]: 293 nM

CC1(C)CCCN(c2cc(N3CCOCC3)cc(=O)[nH]2)[C@@H](Cc2ccccc2)C1 [Example 76, (R)-6-(2-benzyl-4,4-dimethylazepan-1-yl)-4-morpholinopyridin-2(1H)-one]
IC50 [1]: 70.2 nM | IC50 [2]: 2680 nM

C[C@@H]1CN(c2cc(=O)[nH]c(N3CCCCC[C@@H]3Cc3cccs3)n2)CCO1 [Example 286, 6-((R)-2-methylmorpholino)-2-((R)-2-(thiophen-2-ylmethyl)azepan-1-yl)pyrimidin-4(3H)-one]
IC50 [1]: 24.6 nM | IC50 [2]: 1020 nM

CC1COCCN1c1cc(=O)[nH]c(N2CCCC2Cc2ccccc2)n1 (single isomer, unassigned) [Example 339, 2-(2-benzylpyrrolidin-1-yl)-6-(3-methylmorpholino)pyrimidin-4(3H)-one]
IC50 [1]: 34.5 nM | IC50 [2]: 1560 nM

C[C@@H]1CN(c2cc(=O)[nH]c(N3CCCCC[C@@H]3Cc3ccc(F)cc3)n2)CCO1 [Example 304, 2-((R)-2-(4-fluorobenzyl)azepan-1-yl)-6-((R)-2-methylmorpholino)pyrimidin-4(3H)-one]
IC50 [1]: 19.2 nM | IC50 [2]: 957 nM

O=c1cc(N2CCOCC2)nc(N2C[C@@H]3C[C@@H]3[C@@H]2Cc2ccc(F)cc2)[nH]1 [Example 207]
IC50 [1]: 4.4 nM | IC50 [2]: 207 nM

C[C@@H](c1ccccc1)[C@@H]1CCCN1c1nc(N2CCOCC2)cc(=O)[nH]1 [Example 250, 6-morpholino-2-((S)-2-((S)-1-phenylethyl)pyrrolidin-1-yl)pyrimidin-4(3H)-one]
IC50 [1]: 5 nM | IC50 [2]: 153 nM

C[C@@H]1CN(c2cc(=O)[nH]c(N3CCC[C@@H]3Cc3ccccc3)n2)C[C@@H](C)O1 [Example 347, 2-((R)-2-benzylpyrrolidin-1-yl)-6-((2R,6R)-2,6-dimethylmorpholino)pyrimidin-4(3H)-one]
IC50 [1]: 23.7 nM | IC50 [2]: 528 nM
